# Assay results: patent publication EP0255100A2, “Use of trimetrexate and its salts for the preparation of pharmaceutical compositions for treating infections of the mycobacterium-avium-intracellulare complex” (WARNER-LAMBERT COMPANY, priority 1986, dated 1988)
# Read-outs that look alike come from different tables or passages of the source.
# Tests used:
# [1] = test system: Mycobacterium avium-intracellulare complex; assay: minimal inhibitory concentration by the standard T100 growth inhibition method; assay type: cell-based
# Protocol: The activity of trimetrexate at several concentrations ranging from 2 to 64 micrograms/ml was tested against fifteen strains of Mycobacterium avium-intracellulare isolated from AIDS patients who were also suffering from infections of the MAI complex. Drug activity was measured using both a radiometric assay and growth inhibition analysis by the T100 method. (S.H. Siddiqi et al., J. Clin. Microbiol., 22: 919-923 (1985); S.H. Siddiqi et al., J. Clin. Microbiol., 13: 908-912 (1981); and D.E. Snyder et al., Am. Rev. Respir. Dis., 123: 402-406 (1981).
# In a second test, the minimal inhibitory concentration (MIC) required to inhibit 99% and 99.9% growth of the test strains of the Mycobacterium avium-intracellulare complex was determined employing the standard T100 method. The results appear in Table II where the MIC value is given for each of the tested MAI complex strains.
# [2] = test system: Mycobacterium avium-intracellulare complex; assay: radiometric assay (14CO2 release from 14C palmitic acid in 7H12 medium, BACTEC 460), percent microorganism killed; assay type: cell-based; conditions: for killing at 16 µg/mL: Mycobacterium avium-intracellulare, 168 h, read-out: Percent Microorganism Killed One Week Post
# [3] = MAI Complex Strain 109, trimetrexate 16 µg/ml
smiles,measurement,setting,value
"COc1cc(NCc2ccc3nc(N)nc(N)c3c2C)cc(OC)c1OC [trimetrexate, 5-methyl-6-{[(3,4,5-trimethoxyphenyl)amino]methyl}-2-4-quinazolinediamine]",MIC,"[1]; MAI Complex Strain 100, 99% growth inhibition, read-out: Approximate Minimal Inhibitory Concentration (MIC) 99%",2 µg/mL
same,MIC,"[1]; MAI Complex Strain 100, 99.9% growth inhibition, read-out: Approximate Minimal Inhibitory Concentration (MIC) 99.9%",2 µg/mL
same,MIC,"[1]; MAI Complex Strain 101, 99% growth inhibition, read-out: Approximate Minimal Inhibitory Concentration (MIC) 99%",4 µg/mL
same,MIC,"[1]; MAI Complex Strain 101, 99.9% growth inhibition, read-out: Approximate Minimal Inhibitory Concentration (MIC) 99.9%",4 µg/mL
same,MIC,"[1]; MAI Complex Strain 102, 99% growth inhibition, read-out: Approximate Minimal Inhibitory Concentration (MIC) 99%",8 µg/mL
same,MIC,"[1]; MAI Complex Strain 102, 99.9% growth inhibition, read-out: Approximate Minimal Inhibitory Concentration (MIC) 99.9%",8 µg/mL
same,MIC,"[1]; MAI Complex Strain 103, 99% growth inhibition, read-out: Approximate Minimal Inhibitory Concentration (MIC) 99%",2 µg/mL
same,MIC,"[1]; MAI Complex Strain 103, 99.9% growth inhibition, read-out: Approximate Minimal Inhibitory Concentration (MIC) 99.9%",2 µg/mL
same,MIC,"[1]; MAI Complex Strain 104, 99% growth inhibition, read-out: Approximate Minimal Inhibitory Concentration (MIC) 99%",2 µg/mL
same,MIC,"[1]; MAI Complex Strain 104, 99.9% growth inhibition, read-out: Approximate Minimal Inhibitory Concentration (MIC) 99.9%",2 µg/mL
same,MIC,"[1]; MAI Complex Strain 105, 99% growth inhibition, read-out: Approximate Minimal Inhibitory Concentration (MIC) 99%",2 µg/mL
same,MIC,"[1]; MAI Complex Strain 105, 99.9% growth inhibition, read-out: Approximate Minimal Inhibitory Concentration (MIC) 99.9%",2 µg/mL
same,MIC,"[1]; MAI Complex Strain 107, 99% growth inhibition, read-out: Approximate Minimal Inhibitory Concentration (MIC) 99%",2 µg/mL
same,MIC,"[1]; MAI Complex Strain 107, 99.9% growth inhibition, read-out: Approximate Minimal Inhibitory Concentration (MIC) 99.9%",2 µg/mL
same,MIC,"[1]; MAI Complex Strain 108, 99% growth inhibition, read-out: Approximate Minimal Inhibitory Concentration (MIC) 99%",2 µg/mL
same,MIC,"[1]; MAI Complex Strain 108, 99.9% growth inhibition, read-out: Approximate Minimal Inhibitory Concentration (MIC) 99.9%",2 µg/mL
same,MIC,"[1]; MAI Complex Strain 109, 99% growth inhibition, read-out: Approximate Minimal Inhibitory Concentration (MIC) 99%",2 µg/mL
same,MIC,"[1]; MAI Complex Strain 109, 99.9% growth inhibition, read-out: Approximate Minimal Inhibitory Concentration (MIC) 99.9%",2 µg/mL
same,MIC,"[1]; MAI Complex Strain 110, 99% growth inhibition, read-out: Approximate Minimal Inhibitory Concentration (MIC) 99%",2 µg/mL
same,MIC,"[1]; MAI Complex Strain 110, 99.9% growth inhibition, read-out: Approximate Minimal Inhibitory Concentration (MIC) 99.9%",2 µg/mL
same,MIC,"[1]; MAI Complex Strain 111, 99% growth inhibition, read-out: Approximate Minimal Inhibitory Concentration (MIC) 99%",2 µg/mL
same,MIC,"[1]; MAI Complex Strain 111, 99.9% growth inhibition, read-out: Approximate Minimal Inhibitory Concentration (MIC) 99.9%",2 µg/mL
same,MIC,"[1]; MAI Complex Strain 113, 99% growth inhibition, read-out: Approximate Minimal Inhibitory Concentration (MIC) 99%",2 µg/mL
same,MIC,"[1]; MAI Complex Strain 113, 99.9% growth inhibition, read-out: Approximate Minimal Inhibitory Concentration (MIC) 99.9%",2 µg/mL
same,MIC,"[1]; MAI Complex Strain 116, 99% growth inhibition, read-out: Approximate Minimal Inhibitory Concentration (MIC) 99%",2 µg/mL
same,MIC,"[1]; MAI Complex Strain 116, 99.9% growth inhibition, read-out: Approximate Minimal Inhibitory Concentration (MIC) 99.9%",2 µg/mL
same,MIC,"[1]; MAI Complex Strain 117, 99% growth inhibition, read-out: Approximate Minimal Inhibitory Concentration (MIC) 99%",2 µg/mL
same,MIC,"[1]; MAI Complex Strain 117, 99.9% growth inhibition, read-out: Approximate Minimal Inhibitory Concentration (MIC) 99.9%",2 µg/mL
same,MIC,"[1]; MAI Complex Strain 128, 99% growth inhibition, read-out: Approximate Minimal Inhibitory Concentration (MIC) 99%",2 µg/mL
same,MIC,"[1]; MAI Complex Strain 128, 99.9% growth inhibition, read-out: Approximate Minimal Inhibitory Concentration (MIC) 99.9%",2 µg/mL
same,MIC,"[1]; every strain of the MAI complex tested (summary of Table II), read-out: concentration exhibiting inhibitory activity",≤ 8 µg/mL
same,Percent Microorganism Killed One Week Post,[2]; [3],42%
same,killing at 16 µg/mL,"[2]; MAI Complex Strain 100, trimetrexate 16 µg/ml",65%
same,killing at 16 µg/mL,"[2]; MAI Complex Strain 101, trimetrexate 16 µg/ml",68%
same,killing at 16 µg/mL,"[2]; MAI Complex Strain 108, trimetrexate 16 µg/ml",70%
same,killing at 16 µg/mL,[2]; [3],42%
same,killing at 16 µg/mL,"[2]; MAI Complex Strain 116, trimetrexate 16 µg/ml",91%
same,bactericidal activity,"[2]; all strains of the MAI complex tested, trimetrexate 16 µg/ml alone",potent bactericidal activity
